We go through one compound from patent publication US6730665B1, “Treatment of bone cancer” (Mayo Foundation for Medical Education and Research, priority 1999, dated 2004).

For the test, the system named is female Fisher 344 rats. The test can be described thus: Cancellous bone histomorphometry of rat proximal tibial metaphysis after oral 2ME. It is filed as in vivo. The settings on record: 100 mg/kg/day oral gavage 13 days, mean ± SE. As to the method:
All studies were approved by the Institutional Animal Care and Use Committee of the Mayo Clinic, Rochester, Minn. Rats were kept in plastic cages (3 per cage) under standard conditions of a 12 hr dark and 12 hr light cycle with food (Purina Laboratory rodent diet 5001, Ralston-Purina, St. Louis, Mo.) and water ad libitum. Rooms were maintained at a temperature of 24° C.
Fluorochromes were given […] tail vein.
Bone histomorphometry Histomorphometric measurements were performed with the OsteoMeasure Analysis System (OsteoMetrics, Atlanta, Ga.), which consisted of a Pentium 1133 computer coupled to a photomicroscope and image analysis system. […] The region of interest was traced, and the line lengths and area bounded by lines were calculated automatically.
Cancellous bone measurements on stained sections The proximal tibial metaphysis was dehydrated in a series of increasing concentrations of ethanol, embedded without demineralization in a mixture of methyimethacrylate-2-hydroxyethyl and methacrylate (12.5:1) to retain the fluorochrome labels, and sectioned at a thickness of 5 μm (Reichert-Jung Model 2065 Microtome, Heidelberg Germany). Sections were stained with toluidine blue. A standard sampling site was established in the secondary spongiosa of the metaphysis, 1 mm distal to the calcein label that was deposited at the metaphyseal growth plate, its center perpendicular to the long axis of each bone and extending 2.0 mm distal to the starting point. This method adjusts for longitudinal growth such that only the portion of the secondary spongiosa present throughout the experiment was sampled. A total metaphyseal area of 2.88 mm^2 was sampled for each section.
Bone volume measurements Cancellous bone area and cancellous perimeter were determined as described by Turner, R. T. et al., 1998, supra. The following indices of trabecular architecture were calculated: 1) trabecular thickness; 2) trabecular number; and 3) trabecular separation.
Bone formation measurements and calculations Bone formation rate (%/day, tissue area referent) was calculated as the double-labeled perimeter (μn) multiplied by the mineral apposition rate (μm/day) and divided by the tissue area (mm^2); bone formation rate (perimeter referent) was calculated as the double-labeled perimeter (μm) multiplied by the mineral apposition rate (μm/day) and divided by the total bone perimeter (mm); mineral apposition rate was calculated as the mean distance between the declomycin label and the calcein label by the time interval (11 days); and double-labeled perimeter (tissue are referent) was measured as the length with declomycin and calcein labels (mm/mm^2 of cancellous tissue area).
Statistical Analvses All values are expressed as mean±standard error (SE). Significant differences between groups were determined by Fisher's Protected Least Significant Difference post hoc test for multiple group comparisons following detection of significance by 1-way ANOVA. Significance was considered at p values ≦0.05.

With `COc1cc2c(cc1O)CC[C@@H]1[C@@H]2CC[C@]2(C)[C@@H](O)CC[C@@H]12` [2ME, 2-methoxyestradiol], the BFR/BS was 0.35 ± 0.03 %/day, the BV/TV is 17.7 ± 1.9%, the “Mineral Apposition Rate” value stood at 172 ± 0.05 μm/day and the Tb.Sp came to 297 ± 46 μm. The compound also displayed a Tb.Th of 57 ± 2 μm.
